Experimental data as given in patent US12075788B2, “Antimicrobial nano-emulsion” (Laboratoire M2, priority 2019, dated 2024).

How the values were obtained:
[1] = Rats fed 300 mg per day; cited from earlier work
[2] = cited from earlier work
[3] = concentration similar to body care products; cited from earlier work
[4] = system: Erwinia amylovora streptomycin sensitive strain (435s); assay: Detached apple flower assay for fire blight blossom infection, streptomycin sensitive strain; type: in vivo; conditions: Streptomycin 17 0.6 g/L; 7 days after inoculation; FIG. 12
Procedure: (§1) Refrigerated dormant 2-year potted apple trees (cv Gala) were forced to bloom at room temperature in late March 2019. Fresh individual flowers were handpicked as they bloomed and placed in small vials containing 10% sucrose, ensuring their pedicels were submerged. The vials were inserted in racks that were placed in small air-tight boxes for incubation at 25° C. A thin layer of a glycerol water solution (33% w/w) in each box maintained constant humidity. Flowers were individually inoculated directly in the hypanthium with 10 μL of a 10^5 CFU/mL suspension of Erwinia amylovora in PBS with Tween 20 at 0.1% w/w. Half the flowers were inoculated with a streptomycin resistant strain (1535m5) collected in Oregon, USA, and the other half with a local streptomycin sensitive strain (435s). […] Approximately 30 minutes after inoculation, 10 randomly selected individual flowers of each strain organized in 5 blocks were flooded with 32 μL of each treatment. […] Severity scores excluding streptomycin treated flowers were analyzed with a cumulative link mixed model (clmm) in the “ordinal” package of R(Christensen 2015) using blocks as a random effect. Because of separation, data with streptomycin were analyzed with the “bract” function of the package “brglm2” under R using mean bias reduction (Kosmidis, Pagui, and Sartori 2019). […]

[5] = system: Erwinia amylovora streptomycin resistant strain (1535m5); assay: Detached apple flower assay for fire blight blossom infection, streptomycin resistant strain; type: in vivo; conditions: Streptomycin 17 0.6 g/L; 7 days after inoculation; FIG. 12
Procedure: as §1

C/C=C/C=C/C(=O)[O-].[K+] [potassium sorbate]
effects of feeding [1]: no observed deleterious effects | acceptable daily intake ([2]; European Food Safety Authority (EFSA)): 3 mg per kg of body weight per day | maximum acceptable daily intake for humans ([2]; USA): 25 mg per kg of body weight per day | irritation and sensitization [3]: practically non-irritating and non-sensitizing

[H]/N=C(/N)N[C@H]1[C@H](O)[C@@H](O)[C@H](O[C@@H]2O[C@@H](C)[C@](O)(C=O)[C@H]2O[C@@H]2O[C@@H](CO)[C@H](O)[C@@H](O)[C@@H]2NC)[C@@H](N/C(N)=N\[H])[C@@H]1O [streptomycin]
effect on fire blight on flowers [4]: strongly inhibited fire blight | effect on fire blight on flowers [5]: no effect
